Where a name gives a salt, the structure may show the parent alone.

This experiment deals with mouse PKA catalytic subunits (Mus musculus, UniProt P05132). Nature of the experiment: PKA inhibition, ADP-Glo Kinase Assay. (ADP-Glo first removes unused ATP, then detects ADP through luciferase.)
The term IC50 denotes the concentration needed to halve the response being measured. Higher therefore signals weaker potency. Compound `O=C(NCc1c(Cl)cccc1Cl)c1cc([C@@H]2CCNC[C@H]2COc2ccc3c(c2)OCO3)ccc1F` [14ah, 5-((3S,4R)-3-((benzo[d][1,3]dioxol-5-yloxy)methyl)piperidin-4-yl)-N-(2,6-dichlorobenzyl)-2-fluorobenzamide] gave an IC50 of more than 100 µM.
In turn, `Fc1ccc([C@@H]2CCNC[C@H]2COc2ccc3c(c2)OCO3)cc1` [Paroxetine, paroxetine, reference compound] yielded an IC50 of more than 100 µM.
The result for `O=C(NCc1ncc[nH]1)c1cc([C@@H]2CCNC[C@H]2COc2ccc3c(c2)OCO3)ccc1F` [14aq, N-((1H-imidazol-2-yl)methyl)-5-((3S,4R)-3-((benzo[d][1,3]dioxol-5-yloxy)methyl)piperidin-4-yl)-2-fluorobenzamide] reads more than 100 µM; that for `COc1ccccc1CNC(=O)c1cc([C@@H]2CCNC[C@H]2COc2ccc3c(c2)OCO3)ccc1F` [14aj, 5-((3S,4R)-3-((benzo[d][1,3]dioxol-5-yloxy)methyl)piperidin-4-yl)-2-fluoro-N-(2-methoxybenzyl)benzamide hydrochloride], more than 100 µM; that for `O=C(NCCc1ccccc1)c1cc([C@@H]2CCNC[C@H]2COc2ccc3c(c2)OCO3)ccc1F` [14ac, 5-((3S,4R)-3-((benzo[d][1,3]dioxol-5-yloxy)methyl)piperidin-4-yl)-2-fluoro-N-phenethylbenzamide], more than 100 µM.
For `Cc1cccc(C)c1CNC(=O)c1cc([C@@H]2CCNC[C@H]2COc2ccc3c(c2)OCO3)ccc1F` [14ag, 5-((3S,4R)-3-((benzo[d][1,3]dioxol-5-yloxy)methyl)piperidin-4-yl)-N-(2,6-dimethylbenzyl)-2-fluorobenzamide hydrochloride] the value was more than 100 µM; for `O=C(NCCc1cn[nH]c1)c1cc([C@@H]2CCNC[C@H]2COc2ccc3c(c2)OCO3)ccc1F` [14ay, N-(2-(1H-pyrazol-4-yl)ethyl)-5-((3S,4R)-3-((benzo[d][1,3]dioxol-5-yloxy)methyl)piperidin-4-yl)-2-fluorobenzamide hydrochloride], more than 100 µM; for `O=C(NCCc1cccnc1)c1cc([C@@H]2CCNC[C@H]2COc2ccc3c(c2)OCO3)ccc1F` [14ao, 5-((3S,4R)-3-((benzo[d][1,3]dioxol-5-yloxy)methyl)piperidin-4-yl)-2-fluoro-N-(2-(pyridin-3-yl)ethyl)benzamide], more than 100 µM.
For `O=C(NCc1ccccc1)c1cc([C@@H]2CCNC[C@H]2COc2ccc3c(c2)OCO3)ccc1F` [14ab, 5-((3S,4R)-3-((benzo[d][1,3]dioxol-5-yloxy)methyl)piperidin-4-yl)-N-benzyl-2-fluorobenzamide] the value was more than 100 µM; for `O=C(NCCc1c(F)cccc1F)c1cc([C@@H]2CCNC[C@H]2COc2ccc3c(c2)OCO3)ccc1F` [14ae, 5-((3S,4R)-3-((benzo[d][1,3]dioxol-5-yloxy)methyl)piperidin-4-yl)-N-(2,6-difluorophenethyl)-2-fluorobenzamide], more than 100 µM; for `O=C(NCc1c(F)cccc1F)c1cc([C@@H]2CCNC[C@H]2COc2ccc3c(c2)OCO3)ccc1F` [14ad, 5-((3S,4R)-3-((benzo[d][1,3]dioxol-5-yloxy)methyl)piperidin-4-yl)-N-(2,6-difluorobenzyl)-2-fluorobenzamide hydrochloride], more than 100 µM.
On to `O=C(NCCc1c[nH]cn1)c1cc([C@@H]2CCNC[C@H]2COc2ccc3c(c2)OCO3)ccc1F` [14ar, N-(2-(1H-imidazol-4-yl)ethyl)-5-((3S,4R)-3-((benzo[d][1,3]dioxol-5-yloxy)methyl)piperidin-4-yl)-2-fluorobenzamide], for which the IC50 was more than 100 µM.
For `O=C(NCCc1ccncc1)c1cc([C@@H]2CCNC[C@H]2COc2ccc3c(c2)OCO3)ccc1F` [14ap, 5-((3S,4R)-3-((benzo[d][1,3]dioxol-5-yloxy)methyl)piperidin-4-yl)-2-fluoro-N-(2-(pyridin-4-yl)ethyl)benzamide] the value was more than 100 µM.
For `O=C(NCCc1ccccn1)c1cc([C@@H]2CCNC[C@H]2COc2ccc3c(c2)OCO3)ccc1F` [14an, 5-((3S,4R)-3-((benzo[d][1,3]dioxol-5-yloxy)methyl)piperidin-4-yl)-2-fluoro-N-(2-(pyridin-2-yl)ethyl)benzamide] the value was more than 100 µM; for `O=C(Cc1cc([C@@H]2CCNC[C@H]2COc2ccc3c(c2)OCO3)ccc1F)NCCc1ccccn1` [14bc, 2-(5-((3S,4R)-3-((benzo[d][1,3]dioxol-5-yloxy)methyl)piperidin-4-yl)-2-fluorophenyl)-N-(2-(pyridin-2-yl)ethyl)acetamide hydrochloride], more than 100 µM; for `CNC(=O)c1cc([C@@H]2CCNC[C@H]2COc2ccc3c(c2)OCO3)ccc1F` [14aa, 5-((3S,4R)-3-((benzo[d][1,3]dioxol-5-yloxy)methyl)piperidin-4-yl)-2-fluoro-N-methylbenzamide], more than 100 µM.
The result for `O=C(NCc1ccccc1C(F)(F)F)c1cc([C@@H]2CCNC[C@H]2COc2ccc3c(c2)OCO3)ccc1F` [14af, 5-((3S,4R)-3-((benzo[d][1,3]dioxol-5-yloxy)methyl)piperidin-4-yl)-2-fluoro-N-(2-(trifluoromethyl)benzyl)benzamide] reads more than 100 µM.
In turn, `O=C(NCc1ccncc1)c1cc([C@@H]2CCNC[C@H]2COc2ccc3c(c2)OCO3)ccc1F` [14am, 5-((3S,4R)-3-((benzo[d][1,3]dioxol-5-yloxy)methyl)piperidin-4-yl)-2-fluoro-N-(pyridin-4-ylmethyl)benzamide] came in with an IC50 of more than 100 µM.
The result for `COc1cccc(OC)c1CNC(=O)c1cc([C@@H]2CCNC[C@H]2COc2ccc3c(c2)OCO3)ccc1F` [14ai, 5-((3S,4R)-3-((benzo[d][1,3]dioxol-5-yloxy)methyl)piperidin-4-yl)-N-(2,6-dimethoxybenzyl)-2-fluorobenzamide hydrochloride] reads more than 100 µM.
In the case of `O=C(NCc1cccnc1)c1cc([C@@H]2CCNC[C@H]2COc2ccc3c(c2)OCO3)ccc1F` [14al, 5-((3S,4R)-3-((benzo[d][1,3]dioxol-5-yloxy)methyl)piperidin-4-yl)-2-fluoro-N-(pyridin-3-ylmethyl)benzamide], the IC50 is more than 100 µM.
